These results are taken from a melting point compilation (Tetko et al.; mined from patent text by program, amines drawn as free bases though some values may be those of a salt).

In general, melting point refers to the temperature of the solid-liquid transition. Compound `Cc1cccc(NC(=O)C(C)Oc2ccc(Oc3ccc(C#N)cc3)cc2)n1` (configuration not stated) came in with a melting point of 109 to 111 °C.

As to `CC(O)=C(C#N)C(=O)Nc1cc(Br)ccc1Br`, the melting point is 148 to 150 °C.

On to `O=C1NCC(=O)c2[nH]cnc2N1`, for which the melting point was > 300 °C.

The compound `Cc1ccc(Oc2cc(-c3ccc(Br)cc3)oc2-c2ccc(Br)cc2)cc1` gave a melting point of 92 to 93 °C.

`NC(=O)N1C(=O)C(C(=O)c2sccc2F)c2cc(Cl)ccc21` (configuration not stated) yielded a melting point of 235 to 240 °C.

`Cc1[nH]c2ccc(F)cc2c1C(=O)NC1CCN(CCc2ccccc2)CC1` displayed a melting point of 159 to 162 °C.

Compound `OC1CCc2ccc(Oc3c(F)cc(C(F)(F)F)cc3Cl)cc21` (racemic) showed a melting point of 101 to 102 °C.

Regarding `CCCCOC(=O)c1cccc2c1-c1ccccc1C2=C(C#N)C#N`, the melting point fell in the range of 99 to 100 °C.

For the compound `CN(C(=O)c1cccc(S(=O)(=O)N(C)c2ccc(Br)cc2)c1)c1ccc(Br)cc1F`, the melting point was 136 to 137 °C.

Turning to `CC(C)(O)CCOc1c(-c2ccc(S(C)(=O)=O)cc2)cnn(-c2ccc(F)c(Cl)c2)c1=O`, the melting point lay in the range of 108 to 110 °C.

`COc1cc(C=O)cc(C(F)(F)F)c1O` showed a melting point of 151 to 152 °C.

`NC(=O)CCCCCCCOc1nc(-c2ccccc2)c(-c2ccccc2)n1-c1ccccc1` gave a melting point of 152 to 154 °C.

Compound `Fc1ccccc1C1=NCc2ccccc2-c2ccc(Br)cc21` returned a melting point of 104 to 105 °C.

Turning to `COc1ccc(/C=C(\C#N)c2ccc(Cl)c(Cl)c2)cc1OC1CCCC1`, the melting point is 152 to 154 °C.

For the compound `Nc1ccc(C(=O)c2ccccc2)c(Cl)c1`, the melting point was 120 to 130 °C.

For `CS(=O)(=O)c1ccc(-c2cnn(Cc3cccc([N+](=O)[O-])c3)c(=O)c2-c2ccc(F)cc2)cc1`, the melting point fell in the range of 156 to 157 °C.

`COC(=O)COc1cc2c(c3c1c(C(=O)C(N)=O)c(C)n3Cc1ccccc1)CCCC2`: the melting point was in the range of 115 to 125 °C.

For `CC(C)[C@H](N)C(=O)OCc1nc2c(N)nc3ccccc3c2n1CC(C)(C)O`, the melting point fell in the range of 190 to 192 °C.

`COc1ccc(-c2cc3cc(F)c(F)cc3[nH]2)cc1NS(C)(=O)=O` showed a melting point of 254 to 256 °C.

For `CCOc1c2c(c([N+](=O)[O-])c(OCC)c1OCC)C(=O)OC2`, the melting point fell in the range of 82.5 to 84.5 °C.

As to `Cc1c(CC(C)C(=O)c2cn(C)c3ccccc23)ncn1C(c1ccccc1)(c1ccccc1)c1ccccc1` (configuration not stated), the melting point was in the range of 209 to 210 °C.

`CCOC(=O)c1cc(-c2cc(OC)cc(OC)c2)ns1` displayed a melting point of 101 to 103 °C.

In the case of `COc1cc2nc(N3CCC(N4C(=O)C(C)C(C)C4=O)CC3)nc(N)c2cc1OC` (configuration not stated), the melting point was 267 to 268 °C.

`CN(C)C(=O)Oc1cccc2c1CN(Nc1ccncc1)C2` gave a melting point of 183 to 185 °C.

On to `C#CCOc1ccc2ccc(=O)oc2c1`, for which the melting point is 118 °C.

Consider `CC(=O)c1c(C)c(NC(=O)NC(C)(C)C)c(C)c2c1OCC2c1ccc(C(C)C)cc1` (configuration not stated), for which the melting point lay in the range of 207 to 208 °C.

In turn, `CC1=C(CCN(O)C(N)=O)/C(=C/c2ccc(S(C)=O)cc2)c2ccccc21` (configuration not stated) had a melting point of 166 to 169 °C.

`CCCOc1ccccc1-c1nc2c(C(N)=O)cccc2c(=O)[nH]1` gave a melting point of 226 to 227 °C.

`Cc1ccccc1CN1CCC(n2c(C)c(-c3ccc(Cl)cc3)[nH]c2=O)CC1` showed a melting point of 218 to 220 °C.

`Cc1c(C#N)ncn1-c1cccc(Oc2ccccc2)c1` had a melting point of 97 to 98 °C.

`O=S(CCCCCl)Cc1ccc(Cl)cc1` (configuration not stated) gave a melting point of 56 to 58 °C.

The compound `COc1cccc(Oc2c(NS(=O)(=O)c3ccc(C(C)(C)C)cc3)ncnc2OCCOc2ccncn2)c1` showed a melting point of 149 to 150 °C.

`COC(=O)c1cccc2c1CC(c1csc(-c3ccncc3)n1)C(=O)N2` (configuration not stated) registered a melting point of 230 to 231 °C.

With `CCCCCCCCc1ccc(N=Nc2ccc(OC(=O)CCOCCCCCCC)cc2)cc1`, the melting point worked out at 42.1 °C.

On to `CC12CCC3c4cc(O)c(O)cc4CCC3C1CCC2O` (configuration not stated), for which the melting point is 181 to 183 °C.

In the case of `Cc1cc(C(Cl)=C(Cl)Cl)cc(C(Cl)=C(Cl)Cl)c1`, the melting point lay in the range of 41.4 to 44.6 °C.

For `Cn1cccc1C1=CC(=O)c2ccccc2C1=O`, the melting point lay within 95 to 96 °C.

On to `O=c1nc(-c2cccc(-n3cccn3)n2)sc2ccccc12`, for which the melting point was 253 to 254 °C.

Compound `O=C(O)Cc1ccc(NC(=O)C(CCc2ccccc2)NS(=O)(=O)c2ccc(Br)cc2)cc1` (racemic) yielded a melting point of 155 to 160 °C.

Consider `CS(=O)(=O)OCCOc1ccc(CN2C(=O)C(=O)c3cc(S(=O)(=O)N4CCCC4COc4ccccc4)ccc32)cc1` (configuration not stated), for which the melting point was in the range of 152 to 153 °C.

Take `O=C1CCC(c2cc(F)c(OC3CCN(C4CCC4)CC3)c(F)c2)=NN1`: the melting point lay in the range of 162 to 164 °C.

In turn, `CC(=O)Nc1cccc(-c2c(C)c(NC(=O)CC(C)(C)C)c(C)c3c2OCC3c2ccc(C(C)C)cc2)c1` (configuration not stated) gave a melting point of 247 to 248 °C.

With `CC(=N)Nc1cccc(CNO)c1`, the melting point lay within 214 to 215 °C.

Compound `O=C(Nc1ccccc1S(=O)(=O)c1ccccc1)N[C@@H](Cc1ccc(Oc2nccc3cnccc23)cc1)C(=O)O` displayed a melting point of 136 °C.

`O=C(NCCO)c1cccc(-c2nc(=O)c3ccccc3s2)n1`: the melting point is 214 to 215 °C.

`Cc1nc(C(F)F)c(C(=O)Nc2ccccc2-c2ccc(Br)cc2)s1` gave a melting point of 151 °C.

With `CN1CCC23c4c5ccc(OCCCN)c4OC2C(O)C=CC3C1C5` (configuration not stated), the melting point lay within 132 to 134 °C.

As to `COCOc1ccc2cc(C=O)ccc2c1`, the melting point fell in the range of 52 to 54 °C.

With `CN(C)c1n[nH]c(-c2ccc(Cl)cc2)c1CC(=O)O`, the melting point lay within 157 to 168 °C.

On to `OCC1OC(SCC=Cc2ccccc2)C(O)C(O)C1O` (configuration not stated), for which the melting point lay within 145 to 146 °C.

In turn, `CCS(=O)(=O)Nc1cc2occc(=O)c2cc1Oc1ccccc1` showed a melting point of 216 to 218 °C.

In the case of `Cc1cc(C(=O)Nc2cc(-c3c(-c4ccc(F)c(C)c4)nc4cccnn34)ccn2)cc(Cl)n1`, the melting point was 298 to 300 °C.

Turning to `COc1ccc(C(=O)O)c(O)c1O`, the melting point is 234 °C.

For `CCCCOc1nc(N)c2[nH]c(=O)n(CCCNS(=O)(=O)c3cccc(CC(=O)OC)c3)c2n1`, the melting point lay in the range of 218 to 219 °C.

`COc1c(-c2cccs2)ccc2c(OC)c(-c3cccs3)ccc12`: the melting point was 225 to 228 °C.

As for `NC(=O)c1ncn2c1[C@@H]1CCCN1C(=O)c1cc(F)ccc1-2`, the melting point was in the range of 239 to 240 °C.

Regarding `Cc1ccc(C(=O)Nc2ccc(CN3CCN(C)CC3)c(C(F)(F)F)c2)cc1C#Cc1ccc(NC2CC2)nn1`, the melting point fell in the range of 68 to 69 °C.

For `C=CCOc1c(OC)cc([C@H]2CC[C@H](c3cc(OC)c(OC)c(OC)c3)O2)cc1S(C)(=O)=O` (relative stereo), the melting point fell in the range of 97 to 98 °C.

`CCC1CCc2c(sc3cc(NC(C)=O)ccc3c2=O)C1` (configuration not stated) came in with a melting point of 243 °C.

On to `NC(=O)CN1C[C@@H]2CCCC[C@@H]2C1=O` (relative stereo), for which the melting point was in the range of 142 to 144 °C.

Compound `c1csc(-c2nc(COc3ccc(CCCCn4ccnc4)cc3)co2)c1` yielded a melting point of 106 to 107 °C.

As for `Cc1csc2ncc(C(O)CC(C)c3ccccc3)n12` (configuration not stated), the melting point fell in the range of 135 to 136 °C.

As to `Cc1oc(C)c(C(=O)O)c1C(=O)O`, the melting point is 232 to 235 °C.

The compound `COc1ccccc1Oc1c(Cl)nc(-c2ccccn2)nc1NS(=O)(=O)c1ccc(C(C)(C)C)cc1` returned a melting point of 122 to 123 °C.

As to `N#Cc1ccc(C=C2CCCN(C(=O)c3ccc(Cl)cc3)C2)cc1`, the melting point is > 210 °C.

Consider `CN1CCCC1=C1C(=O)N(c2ccccc2)c2cc(Cl)ccc21`, for which the melting point lay in the range of 134 to 137 °C.

As for `CC(C)n1nc(-c2sc(NC(=O)c3ccc(CNCCN4CCCCC4)cc3)nc2-c2ccccc2)ccc1=O`, the melting point fell in the range of 134 to 136 °C.

Turning to `OC(Cn1cncn1)(Cn1cncc1C(F)(F)F)c1ccc(Cl)cc1Cl` (configuration not stated), the melting point was in the range of 190 to 192 °C.

`O=S1(=O)NC(C2CCCCC2)Nc2cc3c(cc21)OCCO3` (configuration not stated): the melting point is 196 to 200 °C.

With `CC(C)C(O)c1ccc(-c2ccc(Cl)cc2)cc1` (configuration not stated), the melting point fell in the range of 71 to 72 °C.

As for `O=S1(=O)c2cccc3cccc(c23)N1CCN1CCC(CC2Cc3ccccc3C2)CC1`, the melting point came out at 126 °C.

The compound `CCOC(=O)c1cn2c(cc(Cl)c3ccc(OC)cc32)n1` gave a melting point of 215 to 216 °C.

For `COc1ccc(S(=O)(=O)C2(C(=O)NO)CCN(C3CCCCCCC3)CC2)cc1`, the melting point was > 200 °C.

On to `COC(=O)Cc1cc(Br)ccc1OCc1ccc(OCc2nc(-c3ccccc3)oc2C)cc1`, for which the melting point was 100 to 101 °C.

With `CCC(C)N(C)C(=O)c1cc2ccsc2c(-c2ccccc2)n1` (configuration not stated), the melting point was found to be 117 °C.

Consider `CCOC(=O)c1cc2cc(C3=NNC(=O)CC3)ccc2[nH]1`, for which the melting point is 235 to 237 °C.

For the compound `CCCn1c(=O)c2c(ncn2CCCCC(C)=O)n(C)c1=O`, the melting point was 76 to 78 °C.

Consider `NS(=O)(=O)c1ccc(CCN2CCC(N3CCc4ccccc43)CC2)cc1`, for which the melting point is 207 to 210 °C.

`CCCNC(=O)Nc1ccccc1` returned a melting point of 106 to 107 °C.

As for `CCOC(=O)c1nc(-c2ccc([N+](=O)[O-])cc2)[nH]c1-c1cccc(OC)c1`, the melting point lay within 194 to 196 °C.

With `Fc1ccc(-c2ncn(C3CCCCO3)c2-c2ccc(F)cc2)cc1` (configuration not stated), the melting point lay in the range of 149 to 152 °C.

`CCCc1c(OCCCCCOc2ccccc2CCC(=O)O)ccc2c1OCCC2=O` displayed a melting point of 75 to 76 °C.

`CS(=O)(=O)c1ccc(-c2cnn(CC(=O)c3csc4ccccc34)c(=O)c2-c2ccc(F)cc2)cc1` registered a melting point of 183 to 184 °C.

`CC1=NC(NC(=O)Nc2cccc(C)c2)C(=O)N(CC(=O)C2CCCC2)c2c(C)cccc21` (configuration not stated) gave a melting point of 150 to 156 °C.

Regarding `CCCCCn1ncc2c(N)c(C(N)=O)cnc21`, the melting point was 201 to 202 °C.

Turning to `COC(=O)C(C)Nc1c([N+](=O)[O-])cnn1-c1c(Cl)cc(C(F)(F)F)cc1Cl` (configuration not stated), the melting point was in the range of 123 to 130 °C.

As to `Cc1c(-c2ccc(Cl)cc2F)sc2nc(N)[nH]c(=O)c12`, the melting point is 320 to 340 °C.
